ChEMBL document CHEMBL5154818, “Development of oxoisoaporphine derivatives with topoisomerase I inhibition and reversal of multidrug resistance in breast cancer MCF-7/ADR cells” (Eur J Med Chem, 2022)
Active and inactive are the calls of the source. The rule behind the calls is not given here.

Tests used:
[1] = tested on: Calf thymus DNA; experiment: Binding affinity to calf thymus DNA assessed as red shift in absorption spectra at 20 uM by UV-vis absorption spectroscopy; assay type: nucleic-acid assay; settings: Bos taurus
[2] = target: T1, ATP-dependent translocase ABCB1 (Homo sapiens, UniProt P08183); experiment: Inhibition of P-gp-mediated multidrug resistance in human MCF7/ADR cells at 10 to 20 uM assessed as adriamycin accumulation treated with adriamycin measured after 24 hrs by flow cytometry; assay type: cell-based; settings: nci/adr-res, dose 10-20 µM
T1 sequence (P08183 whole entry): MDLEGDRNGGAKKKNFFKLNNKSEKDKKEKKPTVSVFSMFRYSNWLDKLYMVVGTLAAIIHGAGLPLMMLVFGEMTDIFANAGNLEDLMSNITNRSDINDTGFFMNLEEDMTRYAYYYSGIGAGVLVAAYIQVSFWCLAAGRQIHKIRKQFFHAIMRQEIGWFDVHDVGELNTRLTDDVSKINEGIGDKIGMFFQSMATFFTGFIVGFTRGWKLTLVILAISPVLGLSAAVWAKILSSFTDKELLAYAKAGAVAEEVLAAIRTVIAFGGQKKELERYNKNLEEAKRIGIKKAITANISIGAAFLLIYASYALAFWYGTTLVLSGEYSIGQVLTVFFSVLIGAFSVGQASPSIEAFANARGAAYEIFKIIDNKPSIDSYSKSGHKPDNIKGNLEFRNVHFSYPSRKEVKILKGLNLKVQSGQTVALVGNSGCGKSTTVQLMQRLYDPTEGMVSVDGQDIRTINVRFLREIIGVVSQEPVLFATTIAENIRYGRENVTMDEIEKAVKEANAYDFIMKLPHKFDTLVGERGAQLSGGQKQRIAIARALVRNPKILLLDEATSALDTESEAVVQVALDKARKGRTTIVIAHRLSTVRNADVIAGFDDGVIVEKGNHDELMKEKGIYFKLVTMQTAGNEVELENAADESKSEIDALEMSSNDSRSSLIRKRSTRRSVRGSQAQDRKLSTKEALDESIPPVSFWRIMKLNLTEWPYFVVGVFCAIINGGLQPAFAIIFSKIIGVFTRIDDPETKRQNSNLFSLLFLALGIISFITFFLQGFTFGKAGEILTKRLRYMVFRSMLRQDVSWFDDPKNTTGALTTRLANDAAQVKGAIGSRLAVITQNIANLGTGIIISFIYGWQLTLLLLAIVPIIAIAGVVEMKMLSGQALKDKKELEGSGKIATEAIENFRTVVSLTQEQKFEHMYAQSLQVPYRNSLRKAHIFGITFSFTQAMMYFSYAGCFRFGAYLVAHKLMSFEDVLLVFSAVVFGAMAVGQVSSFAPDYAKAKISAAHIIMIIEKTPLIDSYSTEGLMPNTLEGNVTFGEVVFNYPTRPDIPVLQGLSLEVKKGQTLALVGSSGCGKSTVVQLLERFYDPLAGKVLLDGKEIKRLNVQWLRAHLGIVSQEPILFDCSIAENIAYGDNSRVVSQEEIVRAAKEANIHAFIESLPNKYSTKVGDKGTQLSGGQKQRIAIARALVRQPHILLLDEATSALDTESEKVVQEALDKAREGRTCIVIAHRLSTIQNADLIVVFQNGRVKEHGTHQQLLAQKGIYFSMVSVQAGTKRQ

[3] = tested on: NCI/ADR-RES; experiment: Reversal of multidrug resistant activity in human MCF7/ADR cells after 48 hrs by MTT assay; assay type: functional, cell-based
[4] = tested on: MCF7; experiment: Induction of cell cycle arrest in human MCF7 cells assessed accumulation of cells at G2 phase at 4 uM measured after 48 hrs by propidium iodide staining based flow cytometric analysis (reference value: 37.81%); assay type: functional
[5] = tested on: HepG2; experiment: Antiproliferative activity against human HepG2 cells after 48 hrs by MTT assay; assay type: functional, cell-based; settings: HepG2, 48 h
[6] = tested on: MCF7; experiment: Induction of apoptosis in human MCF7 cells assessed as early apoptotic cells at 2 to 8 uM incubated for 48 hrs by Annexin V-FITC/propidium iodide staining based flow cytometry analysis; assay type: functional; settings: dose 2-8 µM
[7] = Toxicity in BALB/c nude mouse xenografted with human MCF7 cells assessed as kidney tissue damage at 1 to 10 mg/kg, ip administered 3 times a week for 3 weeks; assay type: organism-based; settings: in vivo, 504 h, dose 1-10 mg/kg
[8] = tested on: NCI/ADR-RES; experiment: Induction of apoptosis in human MCF7/ADR cells assessed as decrease in Bcl-2 expression at 5 to 20 uM measured after 24 hrs by Western blotting analysis; assay type: functional, cell-based; settings: dose 5-20 µM
[9] = tested on: NCI/ADR-RES; experiment: Induction of apoptosis in human MCF7/ADR cells assessed as increase intracellular ROS level at 0.1 uM measured by DCFH-DA dye based flow cytometric analysis; assay type: functional, cell-based
[10] = tested on: MCF7; experiment: Induction of cell cycle arrest in human MCF7 cells assessed accumulation of cells at G1 phase at 2 uM measured after 48 hrs by propidium iodide staining based flow cytometric analysis (reference value: 45.94%); assay type: functional
[11] = target: T1, ATP-dependent translocase ABCB1; experiment: Inhibition of P-gp-mediated multidrug resistance in human MCF7/ADR cells assessed as decrease in P-gp expression at 10 uM measured after 24 hrs by Western blot analysis; assay type: cell-based; settings: NCI/ADR-RES
[12] = tested on: L02; experiment: Antiproliferative activity against human L02 cells after 48 hrs by MTT assay; assay type: functional, cell-based; settings: L02, 48 h
[13] = species on record: Danio rerio; experiment: Induction of apoptosis in zebrafish embryo assessed as increase intracellular ROS level at 0.01 to 1 uM measured by DCFH-DA dye based flow cytometric analysis; assay type: functional, organism-based; settings: dose 0.01-1 µM
[14] = Toxicity in BALB/c nude mouse xenografted with human MCF7 cells assessed as increase in survival rate at 10 mg/kg, ip administered 3 times a week for 3 weeks; assay type: organism-based; settings: in vivo, 504 h
[15] = tested on: MCF7; experiment: Antiproliferative activity against human MCF7 cells assessed as growth inhibition at 3 uM after 48 hrs by MTT assay relative to control; assay type: functional; settings: read-out: GI
[16] = tested on: NCI/ADR-RES; experiment: Induction of apoptosis in human MCF7/ADR cells assessed as increase in Bad expression at 5 to 20 uM measured after 24 hrs by Western blotting analysis; assay type: functional, cell-based; settings: dose 5-20 µM
[17] = tested on: MCF7; experiment: Induction of cell cycle arrest in human MCF7 cells assessed accumulation of cells at G2 phase at 8 uM measured after 48 hrs by propidium iodide staining based flow cytometric analysis (reference value: 37.81%); assay type: functional
[18] = target: T1, ATP-dependent translocase ABCB1; experiment: Inhibition of P-gp-mediated multidrug resistance in human MCF7/ADR cells assessed as decrease in P-gp expression at 20 uM measured after 24 hrs by Western blot analysis; assay type: cell-based; settings: NCI/ADR-RES
[19] = tested on: MCF7; experiment: Induction of cell cycle arrest in human MCF7 cells assessed accumulation of cells at S phase at 2 uM measured after 48 hrs by propidium iodide staining based flow cytometric analysis (reference value: 27.53%); assay type: functional
[20] = tested on: MCF7; experiment: Induction of cell cycle arrest in human MCF7 cells assessed accumulation of cells at G2 phase at 2 uM measured after 48 hrs by propidium iodide staining based flow cytometric analysis (reference value: 37.81%); assay type: functional
[21] = Toxicity in BALB/c nude mouse xenografted with human MCF7 cells assessed as heart tissue damage at 1 to 10 mg/kg, ip administered 3 times a week for 3 weeks; assay type: organism-based; settings: in vivo, 504 h, dose 1-10 mg/kg
[22] = Toxicity in BALB/c nude mouse xenografted with human MCF7 cells assessed as liver tissue damage at 1 to 10 mg/kg, ip administered 3 times a week for 3 weeks; assay type: organism-based; settings: in vivo, 504 h, dose 1-10 mg/kg
[23] = tested on: NCI/ADR-RES; experiment: Induction of apoptosis in human MCF7/ADR cells assessed as increase in Bax expression at 5 to 20 uM measured after 24 hrs by Western blotting analysis; assay type: functional, cell-based; settings: dose 5-20 µM
[24] = tested on: MCF7; experiment: Antitumor activity against human MCF7 cells xenografted in Balb/c nude mouse assessed as tumor growth inhibition at 1 mg/kg, ip administered 3 times a week for 3 weeks; assay type: functional; settings: MCF7, 504 h, read-out: TGI
[25] = tested on: NCI/ADR-RES; experiment: Induction of apoptosis in human MCF7/ADR cells assessed as increase in apoptotic rate at 2 to 8 uM measured after 48 hrs by Annexin V-FITC/propidium iodide staining based flow cytometry analysis; assay type: functional; settings: dose 2-8 µM
[26] = tested on: MCF7; experiment: Induction of cell cycle arrest in human MCF7 cells assessed accumulation of cells at G1 phase at 4 uM measured after 48 hrs by propidium iodide staining based flow cytometric analysis (reference value: 45.94%); assay type: functional
[27] = tested on: MDA-MB-231; experiment: Antiproliferative activity against human MDA-MB-231 cells after 48 hrs by MTT assay; assay type: functional, cell-based; settings: MDA-MB-231, 48 h
[28] = tested on: MCF7; experiment: Induction of apoptosis in human MCF7 cells assessed as increase in cleaved PARP expression 1.5 to 6 uM incubated for 24 hrs by Western blotting analysis; assay type: functional, cell-based; settings: dose 1.5-6 µM
[29] = tested on: Calf thymus DNA; experiment: Binding affinity to calf thymus DNA assessed as hypochromicity at 20 uM measured by UV-vis absorption spectroscopy; assay type: nucleic-acid assay; settings: Bos taurus
[30] = Toxicity in BALB/c nude mouse xenografted with human MCF7 cells assessed as lung tissue damage at 1 to 10 mg/kg, ip administered 3 times a week for 3 weeks; assay type: organism-based; settings: in vivo, 504 h, dose 1-10 mg/kg
[31] = tested on: MCF7; experiment: Induction of cell cycle arrest in human MCF7 cells assessed accumulation of cells at S phase at 4 uM measured after 48 hrs by propidium iodide staining based flow cytometric analysis (reference value: 27.53%); assay type: functional
[32] = tested on: MCF7; experiment: Induction of apoptosis in human MCF7 cells assessed as increase in cleaved caspase-3 expression 1.5 to 6 uM incubated for 24 hrs by Western blotting analysis; assay type: functional, cell-based; settings: dose 1.5-6 µM
[33] = tested on: MCF7; experiment: Antitumor activity against human MCF7 cells xenografted in Balb/c nude mouse assessed as tumor growth inhibition at 10 mg/kg, ip administered 3 times a week for 3 weeks; assay type: functional; settings: MCF7, 504 h, read-out: TGI
[34] = tested on: MCF7; experiment: Induction of apoptosis in human MCF7 cells assessed as late apoptotic cells at 2 to 8 uM incubated for 48 hrs by Annexin V-FITC/propidium iodide staining based flow cytometry analysis; assay type: functional; settings: dose 2-8 µM
[35] = tested on: MCF7; experiment: Antiproliferative activity against human MCF7 cells after 48 hrs by MTT assay; assay type: functional, cell-based; settings: MCF7, 48 h
[36] = tested on: A549; experiment: Antiproliferative activity against human A549 cells after 48 hrs by MTT assay; assay type: functional, cell-based; settings: A549, 48 h

## CC1CCCCN1CCOc1ccc2c3c(nccc13)-c1ccccc1C2=O (stereo unspecified)
[1]
  OD: 2.2 nm
[2]
  inhibition (INH): Active
[3]
  IC50: 900 nM
[4]
  Activity: 32.26%
[5]
  IC50: 4880 nM
[6]
  Activity: 5.4%
[7]
  Activity: Non-Toxic
[8]
  Activity: Active
[9]
  Activity: Active
[10]
  Activity: 49.45%
[11]
  inhibition at 10 µM: 14.9%
[12]
  IC50: 36500 nM
[13]
  Activity: Active
[14]
  Activity: Non-Toxic
[15]
  inhibition of growth at 3 µM: 24.4%
[16]
  Activity: Active
[17]
  Activity: 31.38%
[18]
  inhibition at 20 µM: 18.1%
[19]
  Activity: 25.72%
[20]
  Activity: 33.28%
[21]
  Activity: Non-Toxic
[22]
  Activity: Non-Toxic
[23]
  Activity: Active
[24]
  inhibition in vivo at 1 mg/kg: 32.4%
[25]
  Activity: 15.2%
[26]
  Activity: 51.07%
[27]
  IC50: 2420 nM
[28]
  Activity: Active
[29]
  Activity: 33.9%
[30]
  Activity: Non-Toxic
[31]
  Activity: 25.08%
[32]
  Activity: Active
[33]
  inhibition in vivo at 10 mg/kg: 7.2%
[34]
  Activity: 59.5%
[35]
  IC50: 1320 nM
[36]
  IC50: 2390 nM
